Values quoted from earlier work in patent publication US20190008798A1, “Coenzyme Q10 in the preventive treatment of type 2 diabetes” (Pharma Nord ApS, priority 2017, published 2019).

What was measured:
[1] = test system: adipose tissue; settings: mice

SMILES: COC1=C(OC)C(=O)C(C/C=C(\C)CC/C=C(\C)CC/C=C(\C)CC/C=C(\C)CC/C=C(\C)CC/C=C(\C)CC/C=C(\C)CC/C=C(\C)CC/C=C(\C)CCC=C(C)C)=C(C)C1=O [Q10, ubidecarenone]
- mortality in subjects with cardiac failure: decrease mortality
- insulin sensitivity in the adipose tissue [1]: improves insulin sensitivity
